This passage reports TGI results from PubChem BioAssay (NCI).

Molecules are shown by their SMILES.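 1) Cells in 96-well plates. 2) Compound, 48 h, 5 concentrations. 3) Linear interpolation between surrounding doses. 4) Unreached endpoint = highest concentration. At the TGI there is no net growth.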

For the first test, the system named is NCI/ADR-RES ovarian. Briefly: NCI anticancer screen, dose series, 48 h.
In turn, `Cc1cn(C2CC(N(O)C(N)=O)C(CO)O2)c(=O)[nH]c1=O` (stereo unspecified) registered a TGI of over 100 µM.
`COC(=O)[C@H]1CO[C@@H](C(C)(C)C)N1C(=O)N1C=CC(=O)C[C@@H]1C` displayed a TGI of over 100 µM.
For the molecule `COc1ccc2c(=O)c(O)c(-c3ccc(OC)c(OC)c3)oc2c1`, the TGI stood at 8.25 µM.
Turning to `O=S1(=O)NC(=NCc2c[nH]c3ccccc23)N(c2ccccc2)c2ccncc21`, the TGI was over 100 µM.
The molecule `CC[C@@]1(O)C(=O)OCc2c1cc1n(c2=O)Cc2c-1nc1ccccc1c2/C=N\NC(=O)CN` registered a TGI of over 76.5 µM.
Take `Cc1ccsc1/C=N/Nc1ncccn1`: the TGI was over 100 µM.
As for `CCc1ccc(CCN2CCCCC2)nc1`, the TGI is over 100 µM.
With `COC(=O)c1cc2c(n1S(=O)(=O)c1ccc(C)cc1)C(=O)C(=O)c1[nH]cc(C(=O)OCc3ccccc3)c1-2`, the TGI was 5.26 µM.
The molecule `COC(=O)[C@H](Cc1c[nH]c2ccccc12)NP(=O)(O)OCC1C=CC(n2cc(C)c(=O)[nH]c2=O)O1` (stereo partly specified) displayed a TGI of over 100 µM.

For a further test, the system named is MDA-MB-435. Briefly: NCI anticancer screen, dose series, 48 h.
Molecule `Oc1cc2c3c(c1)c1cc4c(cc1c[n+]3CC2)OCO4` had a TGI of over 55 µM.
The molecule `O=C(O)c1cccc2c1/C(=N/Nc1ccccc1)CC2` had a TGI of over 100 µM.
Same read-out and setting: the result for `O=c1[nH][nH]c(=O)n1Cc1ccccc1Cn1c(=O)[nH][nH]c1=O` reads over 100 µM; that for `c1ccc(N=C2SC3=Nc4cccc5cccc(c45)N3C2=Nc2ccccc2)cc1`, over 100 µM.
Same read-out and setting: the value for `CN1CCN([C@H]2C[C@H]3[C@@H]4CC=C5C[C@@H](O)CC[C@]5(C)[C@H]4CC[C@]3(C)C2=O)CC1` was over 100 µM; that for `C=C(C1=CC(=O)C(C)(C)O1)[C@@H]1CC=C([C@@H]2CC[C@H]3[C@@]2(C)CC[C@H]2C(C)(C)C(=O)[C@H](O)C[C@]32C)[C@H](O)O1` was 8.04 µM.
The molecule `CCNC(=S)N/N=C/c1cc([N+](=O)[O-])ccc1O` had a TGI of over 100 µM.
Take `Oc1cccc2c(Cl)ccnc12`: the TGI is over 78.5 µM.
The molecule `COc1cc([C@@H]2c3cc4c(cc3[C@@H](Nc3ccc([N+](=O)[O-])cc3C(=O)c3ccccc3)[C@H]3COC(=O)[C@H]23)OCO4)cc(OC)c1OC` showed a TGI of 0.319 µM.
`Oc1ccc(-c2nc(-c3cccnc3)c(-c3ccc(F)cc3)[nH]2)cc1` showed a TGI of 31.1 µM.
Still for that read-out and setting: the value for `CCC1(O)CC2CC(=O)OC2C1O` (stereo unspecified) was over 100 µM; that for `CCOC(=O)Nn1c(C)nnc1-c1ccccc1` was over 100 µM.
On the same count and under the same terms, the value for `Cc1cn(C2CC(N(O)C(N)=O)C(CO)O2)c(=O)[nH]c1=O` (stereo unspecified) was over 100 µM.
Same read-out and setting: the value for `O=[N+]([O-])/C(C(Cl)=C(Cl)Cl)=C(\SCc1ccccc1)N1CCCCC1` was 35.5 µM; that for `COC(=O)[C@H]1CO[C@@H](C(C)(C)C)N1C(=O)N1C=CC(=O)C[C@@H]1C` was over 100 µM.
`COc1ccc2c(=O)c(O)c(-c3ccc(OC)c(OC)c3)oc2c1` displayed a TGI of over 100 µM.
The molecule `O=S1(=O)NC(=NCc2c[nH]c3ccccc23)N(c2ccccc2)c2ccncc21` had a TGI of over 100 µM.
On to `CC[C@@]1(O)C(=O)OCc2c1cc1n(c2=O)Cc2c-1nc1ccccc1c2/C=N\NC(=O)CN`, for which the TGI came out at 41.5 µM.
In turn, `Cc1ccsc1/C=N/Nc1ncccn1` returned a TGI of over 100 µM.
`CCc1ccc(CCN2CCCCC2)nc1` gave a TGI of over 100 µM.
The molecule `COC(=O)c1cc2c(n1S(=O)(=O)c1ccc(C)cc1)C(=O)C(=O)c1[nH]cc(C(=O)OCc3ccccc3)c1-2` displayed a TGI of 0.0301 µM.
Still for that read-out and setting: the value for `COc1ccc(C2c3cc4c(cc3OC(NNS(=O)(=O)c3ccc(C)cc3)C2C)OCO4)cc1` (stereo unspecified) was over 100 µM.
As to `COC(=O)[C@H](Cc1c[nH]c2ccccc12)NP(=O)(O)OCC1C=CC(n2cc(C)c(=O)[nH]c2=O)O1` (stereo partly specified), the TGI is over 100 µM.

The subject of another test is T-47D breast. Briefly: NCI anticancer screen, dose series, 48 h.
`Oc1cc2c3c(c1)c1cc4c(cc1c[n+]3CC2)OCO4` registered a TGI of 22.5 µM.
For `O=C(O)c1cccc2c1/C(=N/Nc1ccccc1)CC2`, the TGI is over 100 µM.
The same measure, in the same setting: the result for `O=c1[nH][nH]c(=O)n1Cc1ccccc1Cn1c(=O)[nH][nH]c1=O` reads over 100 µM; that for `c1ccc(N=C2SC3=Nc4cccc5cccc(c45)N3C2=Nc2ccccc2)cc1`, over 100 µM; that for `CN1CCN([C@H]2C[C@H]3[C@@H]4CC=C5C[C@@H](O)CC[C@]5(C)[C@H]4CC[C@]3(C)C2=O)CC1`, over 100 µM.
On to `C=C(C1=CC(=O)C(C)(C)O1)[C@@H]1CC=C([C@@H]2CC[C@H]3[C@@]2(C)CC[C@H]2C(C)(C)C(=O)[C@H](O)C[C@]32C)[C@H](O)O1`, for which the TGI turned out to be 3.41 µM.
Same read-out and setting: the value for `CCNC(=S)N/N=C/c1cc([N+](=O)[O-])ccc1O` was over 100 µM.
The molecule `Oc1cccc2c(Cl)ccnc12` displayed a TGI of 48.2 µM.
For `COc1cc([C@@H]2c3cc4c(cc3[C@@H](Nc3ccc([N+](=O)[O-])cc3C(=O)c3ccccc3)[C@H]3COC(=O)[C@H]23)OCO4)cc(OC)c1OC`, the TGI was over 100 µM.
For the molecule `Oc1ccc(-c2nc(-c3cccnc3)c(-c3ccc(F)cc3)[nH]2)cc1`, the TGI stood at 43.8 µM.
`CCC1(O)CC2CC(=O)OC2C1O` (stereo unspecified) gave a TGI of over 100 µM.
As for `CCOC(=O)Nn1c(C)nnc1-c1ccccc1`, the TGI is over 100 µM.
Regarding `Cc1cn(C2CC(N(O)C(N)=O)C(CO)O2)c(=O)[nH]c1=O` (stereo unspecified), the TGI was over 100 µM.
`O=[N+]([O-])/C(C(Cl)=C(Cl)Cl)=C(\SCc1ccccc1)N1CCCCC1` registered a TGI of 51.1 µM.
Molecule `COC(=O)[C@H]1CO[C@@H](C(C)(C)C)N1C(=O)N1C=CC(=O)C[C@@H]1C` registered a TGI of over 100 µM.
In turn, `COc1ccc2c(=O)c(O)c(-c3ccc(OC)c(OC)c3)oc2c1` gave a TGI of over 100 µM.
Turning to `O=S1(=O)NC(=NCc2c[nH]c3ccccc23)N(c2ccccc2)c2ccncc21`, the TGI is over 100 µM.
Molecule `CC[C@@]1(O)C(=O)OCc2c1cc1n(c2=O)Cc2c-1nc1ccccc1c2/C=N\NC(=O)CN` displayed a TGI of over 20.3 µM.
Molecule `Cc1ccsc1/C=N/Nc1ncccn1` gave a TGI of over 100 µM.
As to `CCc1ccc(CCN2CCCCC2)nc1`, the TGI is over 100 µM.
As for `COC(=O)c1cc2c(n1S(=O)(=O)c1ccc(C)cc1)C(=O)C(=O)c1[nH]cc(C(=O)OCc3ccccc3)c1-2`, the TGI was found to be 0.975 µM.
Still for that read-out and setting: the result for `COc1ccc(C2c3cc4c(cc3OC(NNS(=O)(=O)c3ccc(C)cc3)C2C)OCO4)cc1` (stereo unspecified) reads over 100 µM.
`COC(=O)[C@H](Cc1c[nH]c2ccccc12)NP(=O)(O)OCC1C=CC(n2cc(C)c(=O)[nH]c2=O)O1` (stereo partly specified) showed a TGI of over 100 µM.

For a further test, the system named is SF-539 CNS. The test is described as follows: NCI anticancer screen, dose series, 48 h.
On to `Oc1cc2c3c(c1)c1cc4c(cc1c[n+]3CC2)OCO4`, for which the TGI was over 100 µM.
Molecule `O=C(O)c1cccc2c1/C(=N/Nc1ccccc1)CC2` returned a TGI of over 100 µM.
On the same count and under the same terms, the value for `O=c1[nH][nH]c(=O)n1Cc1ccccc1Cn1c(=O)[nH][nH]c1=O` was over 100 µM.
Molecule `CN1CCN([C@H]2C[C@H]3[C@@H]4CC=C5C[C@@H](O)CC[C@]5(C)[C@H]4CC[C@]3(C)C2=O)CC1` came in with a TGI of over 100 µM.
With `C=C(C1=CC(=O)C(C)(C)O1)[C@@H]1CC=C([C@@H]2CC[C@H]3[C@@]2(C)CC[C@H]2C(C)(C)C(=O)[C@H](O)C[C@]32C)[C@H](O)O1`, the TGI stood at 2.73 µM.
For the molecule `CCNC(=S)N/N=C/c1cc([N+](=O)[O-])ccc1O`, the TGI was over 100 µM.
On the same count and under the same terms, the value for `Oc1cccc2c(Cl)ccnc12` was over 60.5 µM.
Take `COc1cc([C@@H]2c3cc4c(cc3[C@@H](Nc3ccc([N+](=O)[O-])cc3C(=O)c3ccccc3)[C@H]3COC(=O)[C@H]23)OCO4)cc(OC)c1OC`: the TGI came out at 0.502 µM.
For the molecule `CCC1(O)CC2CC(=O)OC2C1O` (stereo unspecified), the TGI is over 100 µM.
Turning to `CCOC(=O)Nn1c(C)nnc1-c1ccccc1`, the TGI is over 100 µM.
Turning to `Cc1cn(C2CC(N(O)C(N)=O)C(CO)O2)c(=O)[nH]c1=O` (stereo unspecified), the TGI was over 100 µM.
